Data reported in ChEMBL document CHEMBL3616410, “Linked pyridinyl-thiadiazoles: Design and synthesis as potential candidate for treatment of XDR and MDR tuberculosis” (Eur J Med Chem, 2015).
≈ marks a conversion by molar mass, not a printed value.

Key:
Format in all cases: functional
[1] = tested on: Mycobacterium tuberculosis; test: Antimycobacterial activity against multi-drug resistant Mycobacterium tuberculosis TN576 after 5 days by spectrophotometry; details: TN576, 120 h
[2] = tested on: Mycobacterium tuberculosis; test: Antimycobacterial activity against multi-drug resistant Mycobacterium tuberculosis TN1811 after 5 days by spectrophotometry; details: TN1811, 120 h
[3] = tested on: Mycobacterium tuberculosis; test: Antimycobacterial activity against multi-drug resistant Mycobacterium tuberculosis TN715 after 5 days by spectrophotometry; details: TN715, 120 h
[4] = tested on: Mycobacterium tuberculosis; test: Antimycobacterial activity against multi-drug resistant Mycobacterium tuberculosis TN2557 after 5 days by spectrophotometry; details: TN2557, 120 h
[5] = tested on: Mycobacterium tuberculosis; test: Antimycobacterial activity against multi-drug resistant Mycobacterium tuberculosis TN702 after 5 days by spectrophotometry; details: TN702, 120 h
[6] = tested on: Mycobacterium tuberculosis; test: Antimycobacterial activity against multi-drug resistant Mycobacterium tuberculosis TN565 after 5 days by spectrophotometry; details: TN565, 120 h
[7] = tested on: Mycobacterium tuberculosis; test: Antimycobacterial activity against multi-drug resistant Mycobacterium tuberculosis TN1618 after 5 days by spectrophotometry; details: TN1618, 120 h
[8] = tested on: Mycobacterium tuberculosis; test: Antimycobacterial activity against multi-drug resistant Mycobacterium tuberculosis TN772 after 5 days by spectrophotometry; details: TN772, 120 h
[9] = tested on: Mycobacterium tuberculosis; test: Antimycobacterial activity against multi-drug resistant Mycobacterium tuberculosis TN1195 after 5 days by spectrophotometry; details: TN1195, 120 h
[10] = tested on: Mycobacterium tuberculosis; test: Antimycobacterial activity against multi-drug resistant Mycobacterium tuberculosis TN1314 after 5 days by spectrophotometry; details: TN1314, 120 h
[11] = tested on: Mycobacterium tuberculosis; test: Antimycobacterial activity against multi-drug resistant Mycobacterium tuberculosis TN768 after 5 days by spectrophotometry; details: TN768, 120 h

O=C(CCSc1nnc(-c2ccncc2)s1)Nc1ccc(Cl)cc1 gave an MIC [1] of 0.06 µg/mL (≈ 0.159 µM), an MIC [2] of 0.03 µg/mL (≈ 0.0796 µM) and an MIC [3] of 0.06 µg/mL (≈ 0.159 µM). The MIC [4] was 0.13 µg/mL (≈ 0.345 µM), the MIC [5] was 0.25 µg/mL (≈ 0.663 µM) and the MIC [6] was 0.06 µg/mL (≈ 0.159 µM). For the same compound, the MIC [7] was 0.06 µg/mL (≈ 0.159 µM), the MIC [8] was 0.03 µg/mL (≈ 0.0796 µM) and the MIC [9] was 0.25 µg/mL (≈ 0.663 µM). It also gave an MIC [10] of 0.03 µg/mL (≈ 0.0796 µM) and an MIC [11] of 0.06 µg/mL (≈ 0.159 µM).
